Among the data in US8906944B2, “Compounds as tyrosine kinase modulators” (Allergan, Inc., priority 2009, dated 2014) are IC50 values, retold here.

What all share (format): biochemical
For experiment [1], the target named is T1, human VEGF receptor (VEGFR-2) (Homo sapiens, UniProt P35968).
T1 construct: The cytoplasmic domain of the human VEGF receptor (VEGFR-2) was expressed; His; made in house; host or cells: insect cells (baculovirus)
Nature of the experiment: VEGFR2 kinase assay. The following applies: His-VEGFR-2 cytoplasmic domain, 3.6 μM ATP; Table IV, amide or urea linker; read-out: VEGFR2 Enzyme IC50. The procedure: The cytoplasmic domain of the human VEGF receptor (VEGFR-2) was expressed as a Histidine-tagged fusion protein following infection of insect cells using an H is engineered baculovirus. […] Kinase assays were performed in 96 well microtiter plates that were coated overnight with 30 µg of poly-Glu-Tyr (4:1) in 10 mM Phosphate Buffered Saline (PBS), pH 7.2-7.4. The plates were incubated with 1% BSA and then washed four times with PBS prior to starting the reaction. Reactions were carried out in 120 µL reaction volumes containing 3.6 µM ATP in kinase buffer (50 mM Hepes buffer pH 7.4, 20 mM MgCl2, 0.1 mM MnCl2 and 0.2 mM Na3 VO4). […] Reactions were initiated by the addition 0.5 ng of purified protein. Following a ten minute incubation at 25 degree. […] IC50 values for compound inhibition were calculated directly from graphs of optical density (arbitrary units) versus compound concentration following subtraction of blank values.

A further experiment deals with VEGFR1 (Homo sapiens, UniProt P17948). Nature of the experiment: VEGFR1 enzyme assay. The following applies: Table IV, amide or urea linker.
Sequence of VEGFR1 (P17948 27-1338, species assumed): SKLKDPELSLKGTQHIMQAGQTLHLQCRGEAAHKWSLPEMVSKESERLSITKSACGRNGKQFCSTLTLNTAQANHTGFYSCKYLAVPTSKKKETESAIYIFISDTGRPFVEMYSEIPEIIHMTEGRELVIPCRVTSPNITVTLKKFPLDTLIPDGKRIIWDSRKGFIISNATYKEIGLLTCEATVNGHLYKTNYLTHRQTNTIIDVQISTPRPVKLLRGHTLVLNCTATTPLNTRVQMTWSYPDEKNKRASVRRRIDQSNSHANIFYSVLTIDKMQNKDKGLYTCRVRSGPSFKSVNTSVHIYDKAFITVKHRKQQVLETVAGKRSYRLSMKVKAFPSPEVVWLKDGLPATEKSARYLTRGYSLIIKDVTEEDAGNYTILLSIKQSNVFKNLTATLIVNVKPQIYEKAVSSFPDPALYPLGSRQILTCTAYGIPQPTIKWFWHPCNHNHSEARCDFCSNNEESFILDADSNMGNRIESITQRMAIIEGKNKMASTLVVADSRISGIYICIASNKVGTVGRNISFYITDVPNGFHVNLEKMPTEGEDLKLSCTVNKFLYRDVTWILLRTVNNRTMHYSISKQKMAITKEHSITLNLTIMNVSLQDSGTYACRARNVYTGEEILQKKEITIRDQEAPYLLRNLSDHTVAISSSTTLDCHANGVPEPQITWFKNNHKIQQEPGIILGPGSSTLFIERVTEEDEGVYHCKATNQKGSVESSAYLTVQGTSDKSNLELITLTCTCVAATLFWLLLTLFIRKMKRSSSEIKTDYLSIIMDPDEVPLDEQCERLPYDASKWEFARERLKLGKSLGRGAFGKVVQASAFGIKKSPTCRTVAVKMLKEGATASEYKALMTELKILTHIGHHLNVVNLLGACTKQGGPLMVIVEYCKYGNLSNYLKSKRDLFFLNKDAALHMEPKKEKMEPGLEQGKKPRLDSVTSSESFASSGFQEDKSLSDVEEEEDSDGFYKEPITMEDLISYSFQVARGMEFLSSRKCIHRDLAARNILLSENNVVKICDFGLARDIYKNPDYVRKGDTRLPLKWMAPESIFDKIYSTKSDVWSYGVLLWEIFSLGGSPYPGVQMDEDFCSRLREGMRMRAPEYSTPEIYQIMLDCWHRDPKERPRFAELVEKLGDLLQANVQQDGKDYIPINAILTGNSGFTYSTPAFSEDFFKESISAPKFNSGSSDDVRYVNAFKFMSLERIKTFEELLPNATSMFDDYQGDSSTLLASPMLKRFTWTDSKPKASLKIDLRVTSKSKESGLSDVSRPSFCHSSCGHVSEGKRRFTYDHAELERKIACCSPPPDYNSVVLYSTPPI
A further experiment concerns the target PDGFβ (Homo sapiens, UniProt P09619). Kind of experiment: PDGFβ enzyme assay. Conditions: Table IV, amide or urea linker.

Sequence of PDGFβ (P09619 33-1106): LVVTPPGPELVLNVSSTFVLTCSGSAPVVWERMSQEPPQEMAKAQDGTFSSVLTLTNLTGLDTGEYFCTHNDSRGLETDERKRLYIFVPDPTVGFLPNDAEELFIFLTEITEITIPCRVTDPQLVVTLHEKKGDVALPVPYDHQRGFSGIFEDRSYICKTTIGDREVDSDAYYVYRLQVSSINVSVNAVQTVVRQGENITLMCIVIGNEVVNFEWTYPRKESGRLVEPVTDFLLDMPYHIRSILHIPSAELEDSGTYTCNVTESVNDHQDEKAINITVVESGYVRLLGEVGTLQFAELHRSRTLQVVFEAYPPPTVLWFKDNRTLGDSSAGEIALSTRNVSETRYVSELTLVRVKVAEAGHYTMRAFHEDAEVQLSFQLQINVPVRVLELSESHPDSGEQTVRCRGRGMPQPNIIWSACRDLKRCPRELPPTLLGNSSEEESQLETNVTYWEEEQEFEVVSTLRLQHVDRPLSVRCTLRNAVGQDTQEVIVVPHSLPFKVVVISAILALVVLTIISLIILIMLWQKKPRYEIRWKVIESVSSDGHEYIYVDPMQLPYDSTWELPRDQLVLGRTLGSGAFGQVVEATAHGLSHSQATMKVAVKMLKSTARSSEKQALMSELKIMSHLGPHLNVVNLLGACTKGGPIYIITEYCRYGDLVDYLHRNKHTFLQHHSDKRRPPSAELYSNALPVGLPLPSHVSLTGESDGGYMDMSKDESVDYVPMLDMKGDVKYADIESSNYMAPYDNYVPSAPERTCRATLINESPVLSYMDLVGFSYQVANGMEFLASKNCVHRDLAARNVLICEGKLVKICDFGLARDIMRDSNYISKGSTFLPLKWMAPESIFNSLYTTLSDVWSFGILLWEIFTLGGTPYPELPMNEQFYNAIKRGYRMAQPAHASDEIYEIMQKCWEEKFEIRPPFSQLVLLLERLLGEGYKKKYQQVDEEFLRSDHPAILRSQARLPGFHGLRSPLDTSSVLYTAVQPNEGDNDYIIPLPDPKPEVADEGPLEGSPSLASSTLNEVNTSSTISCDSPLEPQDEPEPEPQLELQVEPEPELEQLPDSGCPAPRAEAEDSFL
T1 sequence (P35968 786-1356 limits assumed): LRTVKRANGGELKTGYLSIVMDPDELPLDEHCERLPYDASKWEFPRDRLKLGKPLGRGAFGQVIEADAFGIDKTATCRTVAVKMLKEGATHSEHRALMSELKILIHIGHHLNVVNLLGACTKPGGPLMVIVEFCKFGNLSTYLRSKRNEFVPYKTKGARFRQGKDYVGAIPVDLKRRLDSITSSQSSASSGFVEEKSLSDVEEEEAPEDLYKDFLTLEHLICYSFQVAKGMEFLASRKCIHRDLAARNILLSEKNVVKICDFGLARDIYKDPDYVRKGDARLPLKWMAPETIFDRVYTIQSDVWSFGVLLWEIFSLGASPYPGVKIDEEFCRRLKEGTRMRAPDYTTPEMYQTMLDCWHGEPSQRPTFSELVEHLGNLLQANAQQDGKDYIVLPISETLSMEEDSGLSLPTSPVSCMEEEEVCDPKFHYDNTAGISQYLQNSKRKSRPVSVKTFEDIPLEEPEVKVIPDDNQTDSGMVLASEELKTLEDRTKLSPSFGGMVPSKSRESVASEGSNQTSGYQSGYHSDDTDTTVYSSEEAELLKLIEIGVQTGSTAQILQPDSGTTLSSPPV

With `CCNC(=O)CC[C@H](NC(=O)c1c[nH]c(-c2cc(Oc3cc(C(=O)Nc4cc(C)ccc4F)ccc3F)ccn2)c1)C(=O)NCC` (stereo in doubt) [Example 246, N,N′-diethyl-2-[({5-[4-(2-fluoro-5-{[(2-fluoro-5-methylphenyl)amino]carbonyl}phenoxy)pyridin-2-yl]-1H-pyrrol-3-yl}carbonyl)amino]pentanediamide], the IC50 was 42 nM in experiment [1], 62 nM against VEGFR1 and 54 nM against PDGFβ.
For `Cc1ccc(F)c(NC(=O)c2ccc(F)c(Oc3ccnc(-c4cc(C(=O)N[C@@H](CCC(=O)O)C(=O)O)c[nH]4)c3)c2)c1` (stereo in doubt) [Example 248, 2-[({5-[4-(2-fluoro-5-{[(2-fluoro-5-methylphenyl)amino]carbonyl}phenoxy)pyridin-2-yl]-1H-pyrrol-3-yl}carbonyl)amino]pentanedioic acid], in that order: 56 nM, 28 nM and 157 nM.
On the same counts, the results for `Cc1ccc(F)c(NC(=O)Nc2ccc(Oc3ccnc(-c4cc(C(=O)NCCCc5nn[nH]n5)c[nH]4)c3)cc2)c1` [Example 149, 5-{4-[4-({[(2-fluoro-5-methylphenyl)amino]carbonyl}amino)phenoxy]pyridin-2-yl}-N-[3-(2H-tetrazol-5-yl)propyl]-1H-pyrrole-3-carboxamide] are 4 nM, 6 nM and 13 nM.
Take `Cc1ccc(F)c(NC(=O)Nc2ccc(Oc3ccnc(-c4cc(C(=O)NCCc5nn[nH]n5)c[nH]4)c3)cc2)c1` [Example 150, 5-{4-[4-({[(2-fluoro-5-methylphenyl)amino]carbonyl}amino)phenoxy]pyridin-2-yl}-N-[2-(2H-tetrazol-5-yl)ethyl]-1H-pyrrole-3-carboxamide]: the IC50 stood at 5 nM in experiment [1], 7 nM at VEGFR1 and 16 nM at PDGFβ.
Take `Cc1ccc(F)c(NC(=O)Nc2ccc(Oc3ccnc(-c4cc(C(=O)NCCCN5CCCC(CO)C5)c[nH]4)c3)cc2)c1` (centres unmarked) [Example 160, 5-{4-[4-({[(2-fluoro-5-methylphenyl)amino]carbonyl}amino)phenoxy]pyridin-2-yl}-N-{3-[3-(hydroxymethyl)piperidin-1-yl]propyl}-1H-pyrrole-3-carboxamide]: the IC50 turned out to be 9 nM in experiment [1], 7 nM against VEGFR1 and 19 nM on PDGFβ.
Regarding `Cc1ccc(F)c(NC(=O)Nc2ccc(Oc3ccnc(-c4cc(C(=O)NCCCCC(=O)O)c[nH]4)c3)cc2)c1` [Example 166, 5-{[(5-{4-[4-({[(2-fluoro-5-methylphenyl)amino]carbonyl}amino)phenoxy]pyridin-2-yl}-1H-pyrrol-3-yl)carbonyl]amino}pentanoic acid], the IC50 in experiment [1] stood at 5 nM; at VEGFR1, 6 nM; against PDGFβ, 11 nM.
For the molecule `COC(=O)CCNC(=O)c1c[nH]c(-c2cc(Oc3ccc(NC(=O)Nc4cccc(C)c4)c(F)c3)ccn2)c1` [Example 174, methyl 3-{[(5-{4-[3-fluoro-4-({[(3-methylphenyl)amino]carbonyl}amino)phenoxy]pyridin-2-yl}-1H-pyrrol-3-yl)carbonyl]amino}propanoate], the results for the IC50 (in experiment [1]; at PDGFβ) were 8 nM and 42 nM, respectively.
Consider `COC(=O)CNCCCNC(=O)c1c[nH]c(-c2cc(Oc3cc(C(=O)Nc4cc(C)ccc4F)ccc3F)ccn2)c1` [Example 180, methyl ({3-[({5-[4-(2-fluoro-5-{[(2-fluoro-5-methylphenyl)amino]carbonyl}phenoxy)pyridin-2-yl]-1H-pyrrol-3-yl}carbonyl)amino]propyl}amino)acetate], for which the IC50 turned out to be 14 nM in experiment [1], 32 nM on VEGFR1 and 53 nM at PDGFβ.
`COC(=O)CNCCNC(=O)c1c[nH]c(-c2cc(Oc3cc(C(=O)Nc4cc(C)ccc4F)ccc3F)ccn2)c1` [Example 181, methyl ({2-[({5-[4-(2-fluoro-5-{[(2-fluoro-5-methylphenyl)amino]carbonyl}phenoxy)pyridin-2-yl]-1H-pyrrol-3-yl}carbonyl)amino]ethyl}amino)acetate]: the IC50 in experiment [1] was 22 nM; at VEGFR1, 65 nM; against PDGFβ, 132 nM.
Turning to `Cc1ccc(F)c(NC(=O)c2ccc(F)c(Oc3ccnc(-c4cc(C(=O)NCCN)c[nH]4)c3)c2)c1` [Example 182, N-(2-aminoethyl)-5-[4-(2-fluoro-5-{[(2-fluoro-5-methylphenyl)amino]carbonyl}phenoxy)pyridin-2-yl]-1H-pyrrole-3-carboxamide], the results for the IC50 (in experiment [1]; against VEGFR1) were 33 nM and 86 nM, respectively.
As for `Cc1ccc(F)c(NC(=O)c2ccc(F)c(Oc3ccnc(-c4cc(C(=O)NCCNC(=O)OC(C)(C)C)c[nH]4)c3)c2)c1` [Example 183, tert-butyl {2-[({5-[4-(2-fluoro-5-{[(2-fluoro-5-methylphenyl)amino]carbonyl}phenoxy)pyridin-2-yl]-1H-pyrrol-3-yl}carbonyl)amino]ethyl}carbamate], the IC50 is 24 nM in experiment [1] and 100 nM at VEGFR1.
For `Cc1ccc(F)c(NC(=O)Nc2ccc(Oc3ccnc(-c4cc(C(=O)N5CCC5)c[nH]4)c3)cc2)c1` [Example 185, 1-[4-({2-[4-(azetidin-1-ylcarbonyl)-1H-pyrrol-2-yl]pyridin-4-yl}oxy)phenyl]-3-(2-fluoro-5-methylphenyl)urea], the IC50 on VEGFR1 was determined as 40 nM; on PDGFβ, 63 nM.
`Cc1ccoc1C(=O)Nc1cc(Oc2ccnc(-c3cc(C(=O)NCCCN4CCCCC4)c[nH]3)c2)ccc1F` [Example 191, 5-(4-{4-fluoro-3-[(3-methyl-2-furoyl)amino]phenoxy}pyridin-2-yl)-N-(3-piperidin-1-ylpropyl)-1H-pyrrole-3-carboxamide]: the IC50 in experiment [1] stood at 25 nM; against VEGFR1 it was 42 nM.
Consider `Cc1ccoc1C(=O)Nc1cc(Oc2ccnc(-c3cc(C(=O)NCCCN4CCCC4)c[nH]3)c2)ccc1F` [Example 192, 5-(4-{4-fluoro-3-[(3-methyl-2-furoyl)amino]phenoxy}pyridin-2-yl)-N-(3-pyrrolidin-1-ylpropyl)-1H-pyrrole-3-carboxamide], for which the results for the IC50 (in experiment [1]; against VEGFR1) were 26 nM and 34 nM, respectively.
With `Cc1ccoc1C(=O)Nc1cc(Oc2ccnc(-c3cc(C(=O)NCCCN4CCOCC4)c[nH]3)c2)ccc1F` [Example 194, 5-(4-{4-fluoro-3-[(3-methyl-2-furoyl)amino]phenoxy}pyridin-2-yl)-N-(3-morpholin-4-ylpropyl)-1H-pyrrole-3-carboxamide], the figures for the IC50 (in experiment [1]; against VEGFR1) were 23 nM and 25 nM, respectively.
Consider `Cc1ccc(F)c(NC(=O)Nc2ccc(Oc3ccnc(-c4cc(C(=O)N5CCN(C(=O)OC(C)(C)C)CC5)c[nH]4)c3)cc2F)c1` [Example 224, tert-butyl 4-[(5-{4-[3-fluoro-4-({[(2-fluoro-5-methylphenyl)amino]carbonyl}amino)phenoxy]pyridin-2-yl}-1H-pyrrol-3-yl)carbonyl]piperazine-1-carboxylate], for which the results for the IC50 (in experiment [1]; on VEGFR1) were 10 nM and 21 nM, respectively.
Take `Cc1ccc(F)c(NC(=O)Nc2ccc(Oc3ccnc(-c4cc(C(=O)NCCCN5CCCC5)c[nH]4)c3)cc2F)c1` [Example 226, 5-{4-[3-fluoro-4-({[(2-fluoro-5-methylphenyl)amino]carbonyl}amino)phenoxy]pyridin-2-yl}-N-(3-pyrrolidin-1-ylpropyl)-1H-pyrrole-3-carboxamide]: the figures for the IC50 (in experiment [1]; on VEGFR1) were 6 nM and 9 nM, respectively.
For the molecule `COCCOC(=O)c1c[nH]c(-c2cc(Oc3ccc(NC(=O)Nc4cc(C)ccc4F)c(F)c3)ccn2)c1` [Example 227, 2-methoxyethyl 5-{4-[3-fluoro-4-({[(2-fluoro-5-methylphenyl)amino]carbonyl}amino)phenoxy]pyridin-2-yl}-1H-pyrrole-3-carboxylate], the IC50 came to 9 nM in experiment [1] and 11 nM against VEGFR1.
With `Cc1cccc(NC(=O)Nc2ccc(Oc3ccnc(-c4cc(C(=O)NCCCN5CCC(O)CC5)c[nH]4)c3)cc2)c1` [Example 235, N-[3-(4-hydroxypiperidin-1-yl)propyl]-5-{4-[4-({[(3-methylphenyl)amino]carbonyl}amino)phenoxy]pyridin-2-yl}-1H-pyrrole-3-carboxamide], the figures for the IC50 on VEGFR1 and on PDGFβ were 14 nM and 15 nM, respectively.
Regarding `COC(=O)CC[C@H](NC(=O)c1c[nH]c(-c2cc(Oc3cc(C(=O)Nc4cc(C)ccc4F)ccc3F)ccn2)c1)C(=O)O` [Example 262, 2-[({5-[4-(2-fluoro-5-{[(2-fluoro-5-methylphenyl)amino]carbonyl}phenoxy)pyridin-2-yl]-1H-pyrrol-3-yl}carbonyl)amino]-5-methoxy-5-oxopentanoic acid], the IC50 stood at 67 nM in experiment [1] and 66 nM against PDGFβ.
With `CCNC(=O)CC[C@H](NC(=O)c1c[nH]c(-c2cc(Oc3ccc(NC(=O)Nc4cc(C)ccc4F)cc3)ccn2)c1)C(=O)NCC` [Example 263, N,N′-diethyl-2-{[(5-{4-[4-({[(2-fluoro-5-methylphenyl)amino]carbonyl}amino)phenoxy]pyridin-2-yl}-1H-pyrrol-3-yl)carbonyl]amino}pentanediamide], the IC50 in experiment [1] was 14 nM; against PDGFβ, 46 nM.

The IC50 is the concentration at which inhibition is half-maximal.
